SMILES strings stand for the structures.

For the assay, the system named is HBV. Put plainly: HBV inhibition assay: anti-HBV activity in vitro in HepG2.2.15 cells (extracellular HBV DNA by qPCR). Format: cell-based. To be noted: Hepatitis B virus, 120 h, five days after compound treatment, extracellular HBV DNA in culture supernatant by qPCR, concentration at which HBV replication is inhibited by 50%. An excerpt: Example 441: HBV Inhibition Assays
Cell Line and Culture Conditions:
HepG2.2.15 is a stably-transfected cell line containing the HBV genome. It is derived from the hepatoblastoma cell line Hep G2 (American Type Culture Collection, ATCC® HB-8065™) by the published procedures described in reference: MA Selles et al. Proc. Natl. Acad. Sci. USA 1987, 84, 1005-1009. The cell line was maintained in Dulbecco's modified Eagle's medium (DMEM)-F12 medium supplemented with 10% fetal bovine serum, 100 U/mL penicillin, 100 μg/mL streptomycin, and 0.5 mg/mL of G418.
Anti-HBV Activity In Vitro:
HepG2.2.15 cells were seeded into 96-well plates (3×10^4 cells in 100 μL media per well) and incubated overnight at 37° C. The test compounds were serially half-log diluted in DMSO, then diluted 100 times in culture media. 100 μL diluted compounds were added into the plates to reach 0.5% final concentration of DMSO in every well. Five days after compound treatment, culture supernatant was collected for further analysis.
For quantitative PCR detection of extracellular HBV DNA, culture supernatant was processed by Proteinase K digestion. After heat inactivation of the enzyme, the samples were subjected to HBV DNA quantification by qPCR. The effective compound concentration at which
HBV replication is inhibited by 50% (EC50) was determined.
Background: In qPCR the cycle at which signal appears reflects the starting amount.
`C#Cc1cc(NC(=O)N2CCn3cnc(-c4ccc(F)cc4F)c3C2)ccc1F` [Example 134, 1-(2,4-difluorophenyl)-N-(3-ethynyl-4-fluoro-phenyl)-6,8-dihydro-5H-imidazo[1,5-a]pyrazine-7-carboxamide]: the EC50 (in general, the concentration needed to bring the measured effect to its halfway point) is 85 nM.
In the case of `O=C(Nc1ccc(F)c(Cl)c1)N1CCn2cnc(-c3ccc(F)cc3F)c2C1` [Example 135, N-(3-chloro-4-fluoro-phenyl)-1-(2,4-difluorophenyl)-6,8-dihydro-5H-imidazo[1,5-a]pyrazine-7-carboxamide], the EC50 was determined as 23 nM.
As to `N#Cc1cc(NC(=O)N2CCn3cnc(-c4ccc(F)cc4F)c3C2)ccc1F` [Example 136, N-(3-cyano-4-fluoro-phenyl)-1-(2,4-difluorophenyl)-6,8-dihydro-5H-imidazo[1,5-a]pyrazine-7-carboxamide], the EC50 came out at 56 nM.
As for `O=C(Nc1cc(F)c(F)c(F)c1)N1CCn2cnc(-c3ccc(F)cc3F)c2C1` [Example 138, 1-(2,4-difluorophenyl)-N-(3,4,5-trifluorophenyl)-6,8-dihydro-5H-imidazo[1,5-a]pyrazine-7-carboxamide], the figure is 37 nM; as for `C#Cc1cc(NC(=O)N2CCn3ncc(-c4ccc(F)cc4F)c3C2)ccc1F` [Example 139, 3-(2,4-difluorophenyl)-N-(3-ethynyl-4-fluoro-phenyl)-6,7-dihydro-4H-pyrazolo[1,5-a]pyrazine-5-carboxamide], 46 nM; as for `N#Cc1cc(NC(=O)N2CCn3ncc(-c4ccc(F)cc4F)c3C2)ccc1F` [Example 142, N-(3-cyano-4-fluoro-phenyl)-3-(2,4-difluorophenyl)-6,7-dihydro-4H-pyrazolo[1,5-a]pyrazine-5-carboxamide], 56 nM.
Turning to `O=C(Nc1ccc(F)c(C2CC2)c1)N1CCn2ncc(-c3ccc(F)cc3F)c2C1` [Example 150, N-(3-cyclopropyl-4-fluoro-phenyl)-3-(2,4-difluorophenyl)-6,7-dihydro-4H-pyrazolo[1,5-a]pyrazine-5-carboxamide], the response was half-maximal at 58 nM (EC50).
As for `O=C(Nc1ccc(F)c(Cl)c1)N1CCn2nnc(-c3ccc(F)cc3F)c2C1` [Example 155, N-(3-chloro-4-fluoro-phenyl)-3-(2,4-difluorophenyl)-6,7-dihydro-4H-triazolo[1,5-a]pyrazine-5-carboxamide], a half-maximal effect (EC50) was put at 40 nM.
With `Cc1cc(NC(=O)N2Cc3c(-c4ccc(F)cn4)cnn3CC2C)cc(F)c1F` (stereo not drawn) [Example 156, N-(3,4-difluoro-5-methyl-phenyl)-3-(5-fluoro-2-pyridyl)-6-methyl-6,7-dihydro-4H-pyrazolo[1,5-a]pyrazine-5-carboxamide], the concentration giving a half-maximal response (EC50) amounted to 25 nM.
As for `CC1Cn2ncc(-c3ccc(F)cn3)c2CN1C(=O)Nc1ccc(F)c(C2CC2)c1` (stereo not drawn) [Example 157, N-(3-cyclopropyl-4-fluoro-phenyl)-3-(5-fluoro-2-pyridyl)-6-methyl-6,7-dihydro-4H-pyrazolo[1,5-a]pyrazine-5-carboxamide], the figure is 83 nM; as for `CC1Cn2ncc(-c3ccc(F)cn3)c2CN1C(=O)Nc1cc(F)c(F)c(Cl)c1` (stereo not drawn) [Example 158, N-(3-chloro-4,5-difluoro-phenyl)-3-(5-fluoro-2-pyridyl)-6-methyl-6,7-dihydro-4H-pyrazolo[1,5-a]pyrazine-5-carboxamide], 44 nM; as for `Cc1cc(NC(=O)N2CCn3cnc(-c4ccc(F)cc4F)c3C2)cc(F)c1F` [Example 167, N-(3,4-difluoro-5-methyl-phenyl)-1-(2,4-difluorophenyl)-6,8-dihydro-5H-imidazo[1,5-a]pyrazine-7-carboxamide], 15 nM.
Regarding `O=C(Nc1ccc(F)c(Cl)c1)N1CCn2ncc(N3CCCC3=O)c2C1` [Example 170, N-(3-chloro-4-fluoro-phenyl)-3-(2-oxopyrrolidin-1-yl)-6,7-dihydro-4H-pyrazolo[1,5-a]pyrazine-5-carboxamide], the EC50 is 46 nM.
The molecule `Cc1cnn(-c2cnn3c2CN(C(=O)Nc2ccc(F)c(Cl)c2)CC3)c1` [Example 171, N-(3-chloro-4-fluoro-phenyl)-3-(4-methylpyrazol-1-yl)-6,7-dihydro-4H-pyrazolo[1,5-a]pyrazine-5-carboxamide] had an EC50 of 45 nM.
`CC1Cn2ncc(-c3ccc(F)cc3F)c2CN1C(=O)Nc1ccnc(F)c1` (stereo not drawn) [Example 174, 3-(2,4-difluorophenyl)-N-(2-fluoro-4-pyridyl)-6-methyl-6,7-dihydro-4H-pyrazolo[1,5-a]pyrazine-5-carboxamide]: the EC50 worked out at 66 nM.
`Cc1cc(NC(=O)N2CCn3ncc(-c4ccc(F)cc4)c3C2)ccn1` [Example 176, 3-(4-fluorophenyl)-N-(2-methyl-4-pyridyl)-6,7-dihydro-4H-pyrazolo[1,5-a]pyrazine-5-carboxamide]: a half-maximal response (EC50) required 52 nM.
Then `CC1Cn2ncc(-c3ccc(F)cc3F)c2CN1C(=O)Nc1cc(F)c(F)c(F)c1` (stereo not drawn) [Example 178, 3-(2,4-difluorophenyl)-6-methyl-N-(3,4,5-trifluorophenyl)-6,7-dihydro-4H-pyrazolo[1,5-a]pyrazine-5-carboxamide], with 13 nM.
Then `CC1Cn2ncc(N3CCCC3=O)c2CN1C(=O)Nc1cc(F)c(F)c(F)c1` (stereo not drawn) [Example 183, 6-methyl-3-(2-oxopyrrolidin-1-yl)-N-(3,4,5-trifluorophenyl)-6,7-dihydro-4H-pyrazolo[1,5-a]pyrazine-5-carboxamide], with 68 nM; and `C[C@H]1Cn2ncc(-c3ccc(F)cn3)c2CN1C(=O)Nc1cc(F)c(F)c(F)c1` [Example 198, (6S)-3-(5-fluoro-2-pyridyl)-6-methyl-N-(3,4,5-trifluorophenyl)-6,7-dihydro-4H-pyrazolo[1,5-a]pyrazine-5-carboxamide], with 30 nM.
As for `Cc1cnn(-c2cnn3c2CN(C(=O)Nc2ccc(F)c(Cl)c2)C(C)C3)c1` (stereo not drawn) [Example 199, N-(3-chloro-4-fluoro-phenyl)-6-methyl-3-(4-methylpyrazol-1-yl)-6,7-dihydro-4H-pyrazolo[1,5-a]pyrazine-5-carboxamide], the figure is 30 nM; as for `CC1Cn2ncc(-n3cc(C#N)cn3)c2CN1C(=O)Nc1ccc(F)c(Cl)c1` (stereo not drawn) [Example 200, N-(3-chloro-4-fluoro-phenyl)-3-(4-cyanopyrazol-1-yl)-6-methyl-6,7-dihydro-4H-pyrazolo[1,5-a]pyrazine-5-carboxamide], 38 nM; as for `CC1Cn2ncc(-n3cc(F)cn3)c2CN1C(=O)Nc1ccc(F)c(Cl)c1` (stereo not drawn) [Example 201, N-(3-chloro-4-fluoro-phenyl)-3-(4-fluoropyrazol-1-yl)-6-methyl-6,7-dihydro-4H-pyrazolo[1,5-a]pyrazine-5-carboxamide], 13 nM.
On to `CC1Cn2ncc(N3CCCC3=O)c2CN1C(=O)Nc1ccc(F)c(Cl)c1` (stereo not drawn) [Example 202, N-(3-chloro-4-fluoro-phenyl)-6-methyl-3-(2-oxopyrrolidin-1-yl)-6,7-dihydro-4H-pyrazolo[1,5-a]pyrazine-5-carboxamide], for which the EC50 came out at 51 nM.
As for `CC1Cn2ncc(N3CCCC3=O)c2CN1C(=O)Nc1ccc(F)c(C(F)(F)F)c1` (stereo not drawn) [Example 203, N-[4-fluoro-3-(trifluoromethyl)phenyl]-6-methyl-3-(2-oxopyrrolidin-1-yl)-6,7-dihydro-4H-pyrazolo[1,5-a]pyrazine-5-carboxamide], the figure is 97 nM.
As for `CC1Cn2ncc(C3CCCC3)c2CN1C(=O)Nc1cc(F)c(F)c(F)c1` (stereo not drawn) [Example 204, 3-cyclopentyl-6-methyl-N-(3,4,5-trifluorophenyl)-6,7-dihydro-4H-pyrazolo[1,5-a]pyrazine-5-carboxamide], the figure is 36 nM; as for `CC1Cn2ncc(N3CC(C)(C)CC3=O)c2CN1C(=O)Nc1ccc(F)c(Cl)c1` (stereo not drawn) [Example 212, N-(3-chloro-4-fluoro-phenyl)-3-(4,4-dimethyl-2-oxo-pyrrolidin-1-yl)-6-methyl-6,7-dihydro-4H-pyrazolo[1,5-a]pyrazine-5-carboxamide], 33 nM.
As for `O=C(Nc1ccc(F)c(Cl)c1)N1CCn2ncc(N3CC4CC4C3)c2C1` (stereo not drawn) [Example 215, 3-[3-azabicyclo[3.1.0]hexan-3-yl]-N-(3-chloro-4-fluoro-phenyl)-6,7-dihydro-4H-pyrazolo[1,5-a]pyrazine-5-carboxamide], the figure is 100 nM; as for `CC1Cn2ncc(-c3ccc(F)cc3F)c2CN1C(=O)Nc1ccnc(C(F)F)c1` (stereo not drawn) [Example 218, N-[2-(difluoromethyl)-4-pyridyl]-3-(2,4-difluorophenyl)-6-methyl-6,7-dihydro-4H-pyrazolo[1,5-a]pyrazine-5-carboxamide], 14 nM; as for `C[C@H]1Cn2ncc(N3CC(C#N)CC3=O)c2CN1C(=O)Nc1ccc(F)c(Cl)c1` (stereo partly drawn) [Example 229, (6S)—N-(3-chloro-4-fluoro-phenyl)-3-(4-cyano-2-oxo-pyrrolidin-1-yl)-6-methyl-6,7-dihydro-4H-pyrazolo[1,5-a]pyrazine-5-carboxamide], 47 nM.
`CC1CN(C(=O)Nc2ccc(F)c(Cl)c2)Cc2c(-c3ccc(F)cc3)cnn21` (stereo not drawn) [Example 230, N-(3-chloro-4-fluoro-phenyl)-3-(4-fluorophenyl)-7-methyl-6,7-dihydro-4H-pyrazolo[1,5-a]pyrazine-5-carboxamide] displayed an EC50 of 52 nM.

The values above are taken from patent publication US11168086B2, “Methods of synthesizing pyrazine compounds” (Hoffmann-La Roche Inc., priority 2015, dated 2021).
